Reference: patent US5504240A, “Borane-hydroxydialkylsulfide borates” (Aldrich Chemical Company, Inc., priority 1995, dated 1996)
≈ marks a conversion by molar mass, not a printed value.

How the values were obtained:
[1] = active hydride analysis of borane adducts ([BH3], by hydrolysis and hydrogen evolved); type: physicochemical; conditions: estimated by hydrolysis in water:glycerol:THF 1:1:1 and measuring hydrogen evolved
Experimental: Alternatively, borate esters were prepared from the reaction of borane-tetrahydrofuran with hydroxysulfide in molar ratio 1:3. Quantitative borate ester formation was confirmed by measuring the hydrogen evolved. Warming of the reaction mixture (60°-65° C.) is necessary to drive the reaction to completion. Generally speaking, the novel compounds of this invention are conveniently prepared in a straight-forward procedure by passing diborane into a neat borate ester at 0° C. in a bubbler provided with a stirrer. Excess diborane not absorbed by the borate ester is absorbed in a down-stream bubbler containing tetrahydrofuran over mercury and cooled in ice water. A mercury bubbler is connected to the exit. Diborane is passed into the ester until the concentration of excess borane in THF reaches approximately 1M. The borane-borate adduct is stirred overnight at room temperature prior to disconnecting the bubblers and analyzed for active hydride following the procedure described by Brown, H. C., Organic Syntheses via Boranes, J. Wiley: New York, 1975, p. 191, using a 2M hydrochloric acid-glycerol-water(2:1:1) hydrolysis solution.
A 100 ml one-neck, round-bottom flask equipped with a septum inlet, magnetic stirring bar and an adapter with a stopcock was charged with boron trifluoride diglyme (20 mmol). A 2M solution of sodium borohydride in triglyme (7.5 ml, 15 mmol) was added dropwise by means of a hypodermic syringe. Generation of diborane is smooth and the reaction is not exothermic. Generated diborane was passed through a bubbler containing sodium borohydride (0.1 g) in diglyme (5 ml) and a trap cooled to -78° C. was absorbed in neat 2-(tert-butylthio)ethanol (7.94 g, 60 mmol) at room temperature. After the addition was completed, the solution of borate was stirred at 50° C. for 15 min under a slow stream of nitrogen to produce the borate ester tris 2-(tert-butylthio)ethyl borate at room temperature. Escaped diborane was absorbed in the following bubbler containing tetrahydrofuran (10 ml) over mercury and cooled in ice water. A mercury bubbler was connected to the exit. Diborane was passed into the solution until the concentration of borane in the THF reached approximately 1M. The borane adduct, a colorless liquid, was analyzed for active hydride by a standard procedure using a water:glycerol:THF 1:1:1 hydrolyzing mixture. Concentration 6.4M, ^11 B NMR δ -26.03.
^b Estimated by hydrolysis in water: glycerol: THF 1:1:1 and measurin

[2] = prior art; cited from earlier work
[3] = prior art; cited from earlier work; remark: listed apart in the source
[4] = in BH3; liquid; prior art; cited from earlier work
[5] = solubility in water of hydroxysulfides (1 g per ... mL H2O); type: physicochemical; conditions: for solubility in water 1 g per ... mL H2O / solubility: mL H2O per 1 g hydroxysulfide; for solubility in water 1 g per ... mL H2O (in words) / solubility: water

SMILES: [BH3-][S+](CCOB(OCC[S+]([BH3-])C(C)(C)C)OCC[S+]([BH3-])C(C)(C)C)C(C)(C)C (stereo not drawn) [9a, Tris 2-(tert-Butylthio)ethyl!borate borane adduct (1:3)]
- [BH3] [1]: 6.4 M

SMILES: [BH3-][S+](CCOB(OCC[S+]([BH3-])CCC(C)C)OCC[S+]([BH3-])CCC(C)C)CCC(C)C (stereo not drawn) [9b]
- [BH3] [1]: 5.9 M

SMILES: [BH3-][S+](CC)CCOCCOB(OCCOCC[S+]([BH3-])CC)OCCOCC[S+]([BH3-])CC (stereo not drawn) [9c, tris 2-2-(Ethylthio)ethoxy!ethyl!borate borane adduct (1:3)]
- [BH3] [1]: 5.7 M

SMILES: [BH3-][S+](CCOCCOB(OCCOCC[S+]([BH3-])C(C)(C)C)OCCOCC[S+]([BH3-])C(C)(C)C)C(C)(C)C (stereo not drawn) [9d, tris 2-2-(tert-Butylthio)ethoxy!ethyl!borate borane adduct (1:3)]
- [BH3] [1]: 5.5 M

SMILES: [BH3-][S+](CCOCCOB(OCCOCC[S+]([BH3-])CCC(C)C)OCCOCC[S+]([BH3-])CCC(C)C)CCC(C)C (stereo not drawn) [9e, tris 2-2-(Isoamylthio)ethoxy!ethyl borate borane adduct (1:3)]
- [BH3] [1]: 5.0 M

SMILES: [BH3-][S+](CC)CCOCCOCCOB(OCCOCCOCC[S+]([BH3-])CC)OCCOCCOCC[S+]([BH3-])CC (stereo not drawn) [9f, tris 2-2-2-(Ethylthio)ethoxy!ethoxy!ethyl!borate borane adduct (1:3)]
- [BH3] [1]: 5.2 M

SMILES: [BH3-][S+](CCOCCOCCOB(OCCOCCOCC[S+]([BH3-])C(C)(C)C)OCCOCCOCC[S+]([BH3-])C(C)(C)C)C(C)(C)C (stereo not drawn) [9g, tris 2-2-2-(tert-Butylthio)ethoxy!ethoxy!ethyl!borate borane adduct (1:3)]
- [BH3] [1]: 4.2 M

SMILES: [BH3-][S+](CCOCCOCCOB(OCCOCCOCC[S+]([BH3-])CCC(C)C)OCCOCCOCC[S+]([BH3-])CCC(C)C)CCC(C)C (stereo not drawn) [9h, tris 2-2-2-(Isoamylthio)ethoxy!ethoxy!ethyl!borate borane adduct (1:3)]
- [BH3] [1]: 4.0 M

SMILES: [BH3-][S+](CCOC)CCOB(OCC[S+]([BH3-])CCOC)OCC[S+]([BH3-])CCOC (stereo not drawn) [9i, tris 2-(2-Methoxyethylthio)ethyl!borate borane adduct (1:3)]
- [BH3] [1]: 6.0 M

SMILES: [BH3-][S+]1CCOCC1 [Borane-1,4-thioxane]
- solubility in water [2]: limited solubility in water
- stability [3]: stable over prolonged periods
- borane concentration [4]: 8 M

SMILES: [BH3-][S+](C)C [Borane-methyl sulfide]
- stability [3]: much more stable than borane-tetrahydrofuran

SMILES: [BH3-][O+]1CCCC1 [Borane-tetrahydrofuran]
- stability [3]: unstable over a period of time

SMILES: CCSCCOCCOCCO [Et--SCH2 CH2 OCH2 CH2 OCH2 CH2 OH, 2-2-2-(ethylthio)ethoxy!ethoxy!ethanol]
- solubility in water 1 g per ... mL H2O (in words) [5]: miscible

SMILES: CCSCCOCCO [EtSCH2 CH2 OCH2 CH2 OH, 2-2-(ethylthio)ethoxy!ethanol]
- solubility in water 1 g per ... mL H2O (in words) [5]: miscible

SMILES: COCCSCCO [H3 COCH2 CH2 SCH2 CH2 OH, 2-(2-methoxyethylthio)ethanol]
- solubility in water 1 g per ... mL H2O (in words) [5]: miscible

SMILES: CSC [dimethyl sulfide]
- solubility in water [2]: not soluble in water

SMILES: CC(C)CCSCCOCCOCCO [i-AmSCH2 CH2 OCH2 CH2 OCH2 CH2 OH, 2-2-2-(isoamylthio)ethoxy!ethoxy!ethanol]
- solubility in water 1 g per ... mL H2O [5]: 100 mL

SMILES: CC(C)CCSCCOCCO [i-AmSCH2 CH2 OCH2 CH2 OH, 2-2-(isoamylthio)ethoxy!ethanol]
- solubility in water 1 g per ... mL H2O [5]: < 100 mL

SMILES: CC(C)CCSCCO [i-AmSCH2 CH2 OH, 2-(isoamylthio)ethanol]
- solubility in water 1 g per ... mL H2O [5]: < 100 mL

SMILES: CC(C)(C)SCCOCCOCCO [t-BuSCH2 CH2 OCH2 CH2 OCH2 CH2 OH, 2-2-2-(tert-butylthio)ethoxy!ethoxy!ethanol]
- solubility in water 1 g per ... mL H2O (in words) [5]: miscible

SMILES: CC(C)(C)SCCOCCO [t-BuSCH2 CH2 OCH2 CH2 OH, 2-2-(tert-butylthio)ethoxy!ethanol]
- solubility [5]: 66.7 mg/mL (≈ 374 mM)

SMILES: CC(C)(C)SCCO [t-BuSCH2 CH2 OH, 2-(tert-butylthio)ethanol]
- solubility [5]: 20 mg/mL (≈ 149 mM)
